For experiment [1], the system named is Klebsiella pneumoniae X26. Briefly: MIC, standard agar-dilution assay. In kind it is cell-based.
The subject of experiment [2] is Escherichia coli TEM. Briefly: MIC, standard agar-dilution assay. Format: cell-based.
The subject of experiment [3] is Staphylococcus aureus NRRL B313. Particulars: agar dilution.
Experiment [4] concerns Escherichia coli EC14. Briefly: MIC, standard agar-dilution assay. In kind it is cell-based.
Experiment [5] concerns Streptococcus pneumoniae Park 1. In kind it is cell-based. Particulars: agar dilution. (In general: In agar dilution, organisms are placed on agar that contains the substance at set levels.)
Experiment [6] relates to Streptococcus sp. group D 2041. The experiment can be described thus: MIC, standard agar-dilution assay. In kind it is cell-based.
The subject of experiment [7] is Haemophilus influenzae C.L. The experiment can be described thus: MIC, standard agar-dilution assay. Format: cell-based.
In experiment [8] the test system is Streptococcus pyogenes. Particulars: Streptococcus pyogenes infection in mice; two doses, administered subcutaneously.
For experiment [9], the system named is Staphylococcus aureus. Particulars: Staphylococcus aureus infection in mice; two doses, administered subcutaneously.
The subject of experiment [10] is Klebsiella pneumoniae KAE. Briefly: MIC, standard agar-dilution assay. In kind it is cell-based.
The subject of experiment [11] is Staphylococcus epidermidis 222. The experiment can be described thus: MIC, standard agar-dilution assay. In kind it is cell-based.
Experiment [12] deals with Klebsiella pneumoniae X68. Briefly: MIC, standard agar-dilution assay. In kind it is cell-based.
Experiment [13] has as its system Escherichia coli N10. Briefly: MIC, standard agar-dilution assay. Format: cell-based.
Experiment [14] deals with Staphylococcus aureus X400. Briefly: MIC, standard agar-dilution assay. Format: cell-based.
Experiment [15] concerns Staphylococcus aureus S13E. Format: cell-based. The following applies: agar dilution.
Experiment [16] concerns Staphylococcus epidermidis EPI1. In kind it is cell-based. The following applies: agar dilution.
Experiment [17] concerns Streptococcus pneumoniae. The following applies: Streptococcus pneumoniae infection in mice; two doses, administered subcutaneously.
The subject of experiment [18] is Haemophilus influenzae 76. Briefly: MIC, standard agar-dilution assay. In kind it is cell-based.
Experiment [19] relates to Staphylococcus aureus V41. The experiment can be described thus: MIC, standard agar-dilution assay. Format: cell-based.
For experiment [20], the system named is Streptococcus pyogenes C203. The experiment can be described thus: MIC, standard agar-dilution assay. In kind it is cell-based.
Experiment [21] has as its system Streptococcus faecium ATCC 9790. The experiment can be described thus: MIC, standard agar-dilution assay. Format: cell-based.

Converted amounts (≈) assume the structure as drawn.

In the case of `CCCCCCCCOc1ccc(CNC2(C)CC(OC3C(Oc4c5cc6cc4Oc4ccc(cc4Cl)C(O)C4NC(=O)C(NC(=O)C6NC(=O)C(CC(N)=O)NC(=O)C(NC(=O)C(CC(C)C)NC)C(O)c6ccc(c(Cl)c6)O5)c5ccc(O)c(c5)-c5c(O)cc(O)cc5C(C(=O)O)NC4=O)OC(CO)C(O)C3O)OC(C)C2O)cc1` (stereo not drawn) [Example 94, N^van --( -p-octyloxybenzyl)vancomycin], the MIC was greater than 128 µg/mL in experiment [1]; greater than 128 µg/mL in experiment [2]; 0.25 µg/mL (≈ 0.15 µM) in experiment [3]; greater than 128 µg/mL in [4]; 0.25 µg/mL (≈ 0.15 µM) in [5]; 0.25 µg/mL (≈ 0.15 µM) in [6]. The MIC in experiment [7] was greater than 128 µg/mL; in [10], greater than 128 µg/mL; in [11], 0.5 µg/mL (≈ 0.3 µM); in [12], greater than 128 µg/mL; in [13] it was greater than 128 µg/mL; in experiment [14], 0.5 µg/mL (≈ 0.3 µM). For the same compound, the MIC is 0.5 µg/mL (≈ 0.3 µM) in experiment [15]; 1 µg/mL (≈ 0.6 µM) in experiment [16]; greater than 128 µg/mL in experiment [18]; 0.5 µg/mL (≈ 0.3 µM) in [19]; 0.25 µg/mL (≈ 0.15 µM) in experiment [20]; 0.25 µg/mL (≈ 0.15 µM) in [21]. Further, the ED50 is listed as 0.66 mg/kg/2 in [8], greater than 0.12 mg/kg/2 in experiment [9] and 0.2 mg/kg/2 in experiment [17].
Turning to `CNC(CC(C)C)C(=O)NC1C(=O)NC(CC(N)=O)C(=O)NC2C(=O)NC3C(=O)NC(C(=O)NC(C(=O)O)c4cc(O)cc(O)c4-c4cc3ccc4O)C(O)c3ccc(c(Cl)c3)Oc3cc2cc(c3OC2OC(CO)C(O)C(O)C2OC2CC(C)(NCc3ccc(O)cc3)C(O)C(C)O2)Oc2ccc(cc2Cl)C1O` (stereo not drawn) [Example 105, N^van --( -p-hydroxybenzyl)vancomycin], the MIC was greater than 128 µg/mL in [1]; greater than 128 µg/mL in [2]; 0.5 µg/mL (≈ 0.321 µM) in experiment [3]; greater than 128 µg/mL in experiment [4]; 0.06 µg/mL (≈ 0.0386 µM) in experiment [5]; 2 µg/mL (≈ 1.29 µM) in [6]. The MIC in [7] is 64 µg/mL (≈ 41.1 µM); in [10], greater than 128 µg/mL; in [11], 0.5 µg/mL (≈ 0.321 µM); in experiment [12], greater than 128 µg/mL; in experiment [13], greater than 128 µg/mL; in experiment [14] it was 0.5 µg/mL (≈ 0.321 µM). The MIC in experiment [15] is 0.5 µg/mL (≈ 0.321 µM); in [16], 1 µg/mL (≈ 0.643 µM); in experiment [18], 64 µg/mL (≈ 41.1 µM); in experiment [19], 0.5 µg/mL (≈ 0.321 µM); in experiment [20], 0.5 µg/mL (≈ 0.321 µM); in [21], 0.5 µg/mL (≈ 0.321 µM). In addition, the ED50 in [8] is 1.18 mg/kg/2; in experiment [9], 0.98 mg/kg/2; in experiment [17], 1.25 mg/kg/2.

Source of the values: patent US4698327A, “Novel glycopeptide derivatives” (priority 1986, dated 1987).
